The source of these data is ChEMBL document CHEMBL5725356, “Anti-fibrotic pyridinones” (2017).

Where only a bound is given, the exact number is not on record here.

This assay can be described thus: ET-1 Assay: Fibroblasts (primary human lung and dermal, HFL-1, 3T3 etc) are seeded in 96-well plates at ~15000 cells/well and serum starved for 0-48 hours. After media exchange, compounds serially diluted in DMSO are added to the cells. After a brief incubation of ~30 min, stimulants (TGFb, serum, LPA etc) are added followed by further incubation for 16-48 hours. Media is then harvested and stored frozen in plate format for later endothelin-1 (ET-1) determination by ELISA. Toxicity measurements are made using the ATPlite kit (Perkin-Elmer). ET-1 is quantified using an ELISA kit (R&D Systems). The amount of ET-1 produced in the assay wells are back-calculated using the ELISA standard. The ability of a compound to inhibit ET-1 production is typically analyzed by fitting dose-response curves to a 4-parameter logistic function to obtain an EC50 value. Particulars: HFL1.
With `CCn1nc2c(-c3cnn(C)c3)cn(-c3ccc(OCCOC)cc3)c(=O)c2n1`, the EC50 result is “in the range around 125 µM”.

On to `CC(=O)Nc1cccc(-n2cc(-c3ccc(F)cc3)c(C)cc2=O)c1`, for which the EC50 was > 200 µM.

`CCCNC(=O)c1cc(=O)n(-c2ccc(OC(F)(F)F)cc2)cc1-c1cnn(C)c1`: the EC50 is > 200 µM.

Take `O=c1cc(OCCN2CCS(=O)(=O)CC2)c(-c2ccc(F)cc2)cn1-c1ccc(OC(F)(F)F)cc1`: the concentration for a half-maximal effect (EC50) was > 200 µM.

For `O=c1ccc2c(n1-c1ccc(OC(F)(F)F)cc1)CCC2`, the half-maximal effective concentration (EC50) result was “in the range around 125 µM”.

In the case of `O=c1ccc(-c2cn[nH]c2)cn1-c1ccc(Cl)cc1`, the EC50 was > 200 µM.

Regarding `Cc1cc(=O)n(-c2cccc(C(F)(F)F)c2)cc1-c1ccc(F)cc1`, the EC50 result is “in the range around 125 µM”.

With `CC(C)OCCn1ccc2c(-c3cn[nH]c3)cn(-c3ccc(OC(F)(F)F)cc3)c(=O)c21`, the EC50 was < 50 µM.

`CCOC(=O)Nc1cccc(-n2cc(-c3ccc(F)cc3)c(C)cc2=O)c1`: the EC50 is < 50 µM.

Consider `CNc1cc(=O)n(-c2ccc(OC(F)(F)F)cc2)cc1-c1ccc(F)cc1`, for which the EC50 was > 200 µM.

Consider `COCCOc1ccc(-n2cc(-c3ccc(F)cc3)c(C)cc2=O)cc1`, for which the 50% effective concentration (EC50) entry is “in the range around 125 µM”.

In the case of `Cn1cc(-c2cn(-c3ccc(OC(F)(F)F)cc3)c(=O)cc2NCc2ncccn2)cn1`, the EC50 is > 200 µM.

`Cn1cc(-c2cn(-c3ccc(OC(F)(F)F)cc3)c(=O)cc2NCc2ccc(Cl)cc2Cl)cn1`: the concentration for a half-maximal effect (EC50) is < 50 µM.

As for `CCOc1ccc(-n2cc(-c3ccc4ocnc4c3)c(C)cc2=O)c(C)c1`, the EC50 entry was “in the range around 125 µM”.

As for `Cn1cc(-c2cn(-c3ccc(OC(F)(F)F)cc3)c(=O)cc2NCc2c(F)cccc2F)cn1`, the EC50 result is “in the range around 125 µM”.

As to `NS(=O)(=O)c1ccc(-c2ccc(=O)n(-c3ccc(Cl)cc3)c2)cc1`, the EC50 is > 200 µM.

`Cn1cc(-c2cn(-c3ccc(OC(F)(F)F)cc3)c(=O)c3c2ccn3C)cn1`: the EC50 is < 50 µM.

Regarding `CC(=O)Nc1cc(=O)n(-c2ccc(OC(F)(F)F)cc2)cc1-c1cnn(C)c1`, the EC50 is > 200 µM.

Consider `Cn1cc(-c2cnc(=O)n(-c3ccccc3)c2)cn1`, for which the concentration giving a half-maximal response (EC50) is > 200 µM.

With `CCOc1ccc(-n2cc(-c3cnn(C)c3)c(OCCOC)cc2=O)c(C)c1`, the 50% effective concentration (EC50) is < 50 µM.

`O=c1c2nccnc2c(-c2cnn(CCO)c2)cn1-c1ccc(OC(F)(F)F)cc1`: the EC50 entry was “in the range around 125 µM”.

Consider `Cn1cc(-c2cn(-c3ccc(OC(F)(F)F)cc3)c(=O)cc2NCc2ccc(F)cc2F)cn1`, for which the EC50 is < 50 µM.

Take `Cn1cc(-c2cn(-c3ccc(OC(F)(F)F)cc3)c(=O)c3c2OCC(=O)N3)cn1`: the EC50 is > 200 µM.

Regarding `O=c1ccc(-c2cn[nH]c2)cn1-c1ccc(OC(F)(F)F)cc1`, the EC50 is < 50 µM.

On to `O=c1ccc(-c2cccc(Cl)c2)cn1-c1ccncc1`, for which the 50% effective concentration (EC50) was > 200 µM.

For `CC(C)NC(=O)n1cc(-c2ccc(=O)n(-c3ccccc3)c2)cn1`, the EC50 result is “in the range around 125 µM”.

Take `Cc1cc(=O)n(-c2ccc3[nH]cnc3c2)cc1-c1cnn(C)c1`: the EC50 was > 200 µM.

Take `O=c1c2[nH]ccc2ccn1-c1ccc(OC(F)(F)F)cc1`: the concentration for a half-maximal effect (EC50) was < 50 µM.

In the case of `O=c1ccc(C(F)(F)F)cn1-c1cccc(F)c1`, the EC50 was > 200 µM.

As to `O=c1ccc(C(F)(F)F)cn1-c1ccccc1Cl`, the EC50 was > 200 µM.

As to `Cc1ccc2c(c1)CC(=O)N2c1ccc(OC(F)(F)F)cc1`, the concentration giving a half-maximal response (EC50) is > 200 µM.

Take `CCOc1ccc(Oc2cc(=O)n(-c3ccc(OC(F)(F)F)cc3)cc2-c2cnn(C)c2)cc1C`: the EC50 was > 200 µM.

For `CCOc1ccc(-n2cc(-c3cn[nH]c3)c3ccn(C)c3c2=O)c(C)c1`, the EC50 is < 50 µM.

On to `Cc1cc(=O)n(-c2ccc(F)c(NC(N)=O)c2)cc1-c1ccc(F)cc1`, for which the EC50 is < 50 µM.

Consider `Cn1cc(-c2cn(-c3ccc(OC(F)(F)F)cc3)c(=O)cc2NCc2ccccn2)cn1`, for which the EC50 is < 50 µM.

In the case of `CC(=O)c1ccc(=O)n(-c2ccc(OC(C)C)cc2)c1`, the EC50 is > 200 µM.

As a reminder, the EC50 is the concentration that produces a half-maximal response.
